Reference: PMC10856454, “Discovery of Novel Antitumor Small-Molecule Agent with Dual Action of CDK2/p-RB and MDM2/p53” (Molecules, 2024)

Legend:
[1] = test system: MDM2 mRNA in OVCAR3 cells; assay: q-PCR of MDM2 mRNA after III-13 treatment; format: cell-based, human; conditions: q-PCR after 12 h of treatment
Excerpt: RNA was reverse transcribed with the HiScript Q RT SuperMix for qPCR (Vazyme, Nanjing, China), and quantitative real-time PCR (qPCR) was applied using SYBR Green qPCR Mix (SparkJade, Jinan, China) on the ABI Prism 7500 Fast Real-Time PCR System (Applied Biosystems, Carlsbad, CA, USA) following the manufacturer’s protocols. The comparative CT method (ΔΔCt) was used to calculate gene expression differences, with GAPDH as the reference gene. The following primers were used (human): • ZNF311 (sense, 5′-3′): […] • ZNF311 (antisense, 5′-3′): […] • TBX15 (sense, 5′-3′): […] • TBX15 ([…], 5′-3′): […] • ZNF784 (sense, 5′-3′): […] • ZNF784 (antisense, 5′-3′): […] • SIX3 (sense, 5′-3′): […] • SIX3 (antisense, 5′-3′): […] • KLLN (sense, 5′-3′): […] • KLLN (antisense, 5′-3′): […] • P2RY1 (sense, 5′-3′): […] • P2RY1 (antisense, 5′-3′): […] • MSH4 (sense, 5′-3′): […] • MSH4 (antisense, 5′-3′): […] • STAR (sense, 5′-3′): […] • STAR (antisense, 5′-3′): […] • SUMO4 (sense, 5′-3′): […] • SUMO4 (antisense, 5′-3′): […] • ZC3H12D (sense, 5′-3′): […] • ZC3H12D (antisense, 5′-3′): […] • CCNE1 (sense, 5′-3′): […] • CCNE1 (antisense, 5′-3′): […] • MDM2 (sense, 5′-3′): […] • MDM2 (antisense, 5′-3′): […] • GAPDH (sense, 5′-3′): […] • GAPDH (antisense, 5′-3′): […]

[2] = test system: OVCAR3 cells; assay: Cell cycle detection by flow cytometry, OVCAR3; format: cell-based; conditions: 24 h
Experimental: (§1) Cells were plated at 300,000 cells overnight in six-well plates. III-13 was added in a dose-dependent fashion and then cells were incubated for 24 h. The cells were then fixed with 75% ethanol overnight at 4 °C. The cells were centrifuged, and ethanol was removed. The cells were washed twice with 1 × PBS following staining with DAPI (4′, 6′ diamino-2-phenylindole) and analyzed using Guava easyCyte HT (Merck KGaA, Darmstadt, Germany) with a blue filter. Experiments were performed in triplicate.

[3] = Liver microsomal stability, rat; format: in vitro ADME; conditions: Rat liver microsomes
Experimental: Compounds were incubated with mouse, rat, and human liver microsomal samples and NADPH at 37 °C for 5, 10, 20, 30, or 60 min. The reaction was terminated with a cold acetonitrile solution containing tolbutamide. Compound retention was determined by LC-MS/MS. The retention times, chromatographic acquisition, and chromatographic integration of compounds and positive control substances were analyzed using Analyst (AB Sciex, Framingham, MA, USA).

[4] = test system: HCT116 cells; assay: Colony formation, HCT116; format: cell-based; conditions: 14 days
Experimental: (§2) Cells were inoculated in six-well plates at 1000 cells per well, and III-13 was added in a dose-dependent manner after 24 h. Cells were stained with Crystal Violet Staining Solution (Beyotime, Shanghai, China) at 14 days after incubation, and the cell colonies were counted using Image J.

[5] = test system: HCT116 cells; assay: Cell cycle detection by flow cytometry, HCT116; format: cell-based; conditions: 24 h
Experimental: as §1

[6] = Caco-2 permeability and transporter substrate evaluation; format: in vitro ADME; conditions: human, Caco-2, 2 μM
Experimental: Caco-2 cells were cultured in MEM with 20% FBS, penicillin (100 U/mL), and streptomycin (100 μg/mL) at 37 °C in 95% air and 5% CO2. Cells were seeded into 96-well cell plates and cultured continuously for 24 days for subsequent experiments. […] After 120 min of incubation, samples were collected from the apical and basal ends. The […] content of each sample was determined by liquid chromatography–tandem mass spectrometry (LC-MS/MS). The apparent […] coefficient and efflux ratio were calculated.

[7] = test system: HCT116 cells; assay: Cell proliferation assay (Celltiter-Glo), HCT116; format: cell-based; conditions: Homo sapiens, HCT-116, 72 h; HCT116 (overexpression of CCNE1), three days
Experimental: (§3) Celltiter-Glo Luminescent Cell Viability Assay (Promega, Madison, WI, USA) was used to detect cell viability according to the manufacturer’s instructions. This assay is a homogeneous method of determining the number of viable cells in a culture based on quantitation of the ATP present, an indicator of metabolically active cells. Cells were digested and paved in white-bottomed 96-well plates with 1000 cells/100 μL cell suspension solution; then, different concentrations of compounds were added the next day. TOV-21G and HCT116 were placed in the incubator for three days and OVCAR3 for five days. Then, 100 μL Celltiter-Glo solution was added and mixed for 5 min; the luminous intensity of each well was detected with a spectrophotometer (BioTek, Winooski, VT, USA). The experiment was repeated three times to calculate the cell survival rate.

[8] = test system: OVCAR3 cells; assay: Colony formation, OVCAR3; format: cell-based; conditions: 14 days
Experimental: as §2

[9] = test system: TOV-21G cells; assay: Cell proliferation assay (Celltiter-Glo), TOV-21G; format: cell-based; conditions: Homo sapiens, TOV21G, 72 h; TOV-21G (normal expression of CCNE1), three days
Experimental: as §3

[10] = test system: HCT116 transplanted tumor; assay: Tumor xenograft experiment, nude mouse model of HCT116 transplanted tumor; format: in vivo, Balb/c nude mice
Experimental: HCT116 cells (1 × 10^6) were implanted into the back of adult male Balb/c nude mice by subcutaneous injection. […] The solvent or drug containing solution was administered daily to the vehicle and dosing groups by intraperitoneal injection (0.2 mL/20 g). Tumor growth was measured every three days during treatment. At the end of the treatment, the mice were killed, and the tumors were removed and weighed.

[11] = test system: p-Rb, p-CDK2, MDM2, p53 in OVCAR3 cells; assay: Western blot of CDK2 pathway, MDM2 and p53 proteins in OVCAR3 cells; format: cell-based
Experimental: Total protein from HCT116, OVCAR3 cells and tissues was collected and homogenized in RIPA buffer. The total cellular protein extract was electrophoresed on 12% SDS-polyacrylamide gels and then transferred to a PVDF membrane (Thermo Fisher Scientific, Waltham, MA, USA). Primary antibodies were incubated overnight at 4 °C and secondary antibodies were incubated at room temperature for 1.5 h. Imaging was performed using Image Quant LAS4000 (GE, Boston, MA, USA).

[12] = 50 mg/kg, intraperitoneal daily, 14 days

## CC1(C)CCN1C(=O)O[C@@H]1CC[C@H](c2cc(NC(=O)Cc3ccc(N4CCCC4=O)cc3)n[nH]2)C1 [III-13]
[1]
  MDM2 mRNA expression: significantly inhibited
[2]
  cell cycle arrest: arrested HCT116 and OVCAR3 cells in the G0/G1 phase
[3]
  CLint scaled: 88.9 mL/min/kg
[3]; 60 min
  Remaining (T = 60 min): 22.8%
[3]; NADPH, 37 °C
  half-life: 28.1 min
[4]
  number of colonies: significant reduction
[5]
  cell cycle arrest: arrested HCT116 and OVCAR3 cells in the G0/G1 phase
[6]
  Papp A→B at 120 min, 2 µM: 1.6 ×10⁻⁶ cm/s
  Papp B→A at 120 min, 2 µM: 8.56 ×10⁻⁶ cm/s
  efflux ratio at 120 min, 2 µM: 5.34
[7]
  IC50: 60.9 nM
  IC90: 235 nM
[8]
  number of colonies: significant reduction
[9]
  IC50: 164 nM
[10]; [12]
  tumor volume reduced by: ~69.81%
  tumor weight reduced by: ~60.16%
[10]; 14 days of treatment
  weight loss in mice: did not cause significant weight loss
[10]; both 25 and 50 mg/kg, intraperitoneal daily, 14 days
  tumor volume: significantly reduced
[11]
  MDM2 protein expression: inhibited
  p53 expression: significantly elevated
[11]; OVCAR3 cells
  expression of p-Rb: significantly reduced
  p-CDK2 expression: no significant effect
